Experimental data: ChEMBL document CHEMBL2074172, “Possible involvement of multiple P-glycoprotein-mediated efflux systems in the transport of verapamil and other organic cations across rat intestine” (Pharm Res, 1995)

Molecular target: Multidrug resistance protein 1a (Rattus norvegicus) (UniProt Q6PSM0)
Assay: TP_TRANSPORTER: serosal to mucosal transport in SD rat intestinal segment
Type: functional
Settings: Sprague-Dawley, Intestine

Sequence of Multidrug resistance protein 1a (Rattus norvegicus) (Q6PSM0 as listed by the source): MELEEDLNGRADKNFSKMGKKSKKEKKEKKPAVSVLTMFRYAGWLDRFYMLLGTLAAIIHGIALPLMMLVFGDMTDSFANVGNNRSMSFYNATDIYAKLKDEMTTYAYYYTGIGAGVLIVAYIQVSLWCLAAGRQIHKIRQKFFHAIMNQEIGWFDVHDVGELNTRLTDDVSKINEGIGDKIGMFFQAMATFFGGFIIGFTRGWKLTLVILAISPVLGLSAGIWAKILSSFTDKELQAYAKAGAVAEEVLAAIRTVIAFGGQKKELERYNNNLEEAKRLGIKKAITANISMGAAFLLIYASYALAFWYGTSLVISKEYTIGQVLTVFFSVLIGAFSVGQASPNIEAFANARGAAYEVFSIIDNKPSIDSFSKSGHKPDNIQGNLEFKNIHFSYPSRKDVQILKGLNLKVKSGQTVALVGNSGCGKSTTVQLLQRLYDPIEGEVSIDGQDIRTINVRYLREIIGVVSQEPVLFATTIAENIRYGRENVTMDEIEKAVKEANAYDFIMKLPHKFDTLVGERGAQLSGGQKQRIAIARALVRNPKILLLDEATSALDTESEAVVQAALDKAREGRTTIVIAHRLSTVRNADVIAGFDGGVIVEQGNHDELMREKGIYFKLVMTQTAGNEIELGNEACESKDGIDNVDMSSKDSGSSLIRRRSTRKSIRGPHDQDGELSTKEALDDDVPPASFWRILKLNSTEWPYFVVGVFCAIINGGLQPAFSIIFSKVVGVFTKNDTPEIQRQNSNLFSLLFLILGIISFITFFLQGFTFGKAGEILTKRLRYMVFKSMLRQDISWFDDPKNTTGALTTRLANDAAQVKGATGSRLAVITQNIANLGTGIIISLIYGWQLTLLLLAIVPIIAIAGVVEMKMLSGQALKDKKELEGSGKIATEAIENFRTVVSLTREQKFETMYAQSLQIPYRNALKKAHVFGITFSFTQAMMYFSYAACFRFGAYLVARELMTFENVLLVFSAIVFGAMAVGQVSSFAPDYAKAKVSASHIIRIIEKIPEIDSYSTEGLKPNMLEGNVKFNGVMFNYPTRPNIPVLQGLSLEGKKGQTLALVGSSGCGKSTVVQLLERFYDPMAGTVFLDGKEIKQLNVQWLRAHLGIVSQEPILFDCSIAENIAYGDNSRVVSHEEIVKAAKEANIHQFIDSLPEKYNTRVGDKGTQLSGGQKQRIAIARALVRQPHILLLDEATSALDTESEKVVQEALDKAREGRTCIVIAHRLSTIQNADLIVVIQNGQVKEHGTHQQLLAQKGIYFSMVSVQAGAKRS

| Activity | SMILES |
| --- | --- |
| substrate [+] | COc1ccc(CCN(C)CCCC(C#N)(c2ccc(OC)c(OC)c2)C(C)C)cc1OC (configuration not stated) |
| substrate [+] | CC(C)[N+](C)(CCOC(=O)C1c2ccccc2Oc2ccccc21)C(C)C |
